# In patent US9302999B2, “Substituted triazoles as herbicides” (E. I. DU PONT DE NEMOURS AND COMPANY, priority 2012, dated 2016):
# Like-named read-outs stand apart in the source and are kept apart here.
# Tests used:
# Assay type in all cases: in vivo
# [1] = tested on: barnyardgrass (Echinochloa crus-galli); assay: Test A pre-/postemergence: barnyardgrass; conditions: Echinochloa crus-galli, 240 h; for pest or weed control at 125 g/ha: 125 g ai/ha; for pest or weed control at 500 g/ha: 500 g ai/ha
# In short: (§1)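 Visual 0–100 injury ratings (0 no effect, 100 complete control) taken about ten days after treatment, relative to untreated controls. Preemergence treatment was a directed soil spray; postemergence plants were 2–10 cm tall at one- to two-leaf stage. Soil: loam/sand blend.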
# [2] = tested on: foxtail, giant (giant foxtail, Setaria faberii); assay: Test A pre-/postemergence: foxtail, giant; conditions: Setaria faberi, 240 h; for pest or weed control at 125 g/ha: 125 g ai/ha; for pest or weed control at 500 g/ha: 500 g ai/ha
# In short: as §1
# [3] = tested on: pigweed (Amaranthus retroflexus); assay: Test A pre-/postemergence: pigweed; conditions: Amaranthus retroflexus, 240 h; for pest or weed control at 125 g/ha: 125 g ai/ha; for pest or weed control at 500 g/ha: 500 g ai/ha
# In short: as §1
# [4] = tested on: velvetleaf (Abutilon theophrasti); assay: Test A pre-/postemergence: velvetleaf; conditions: Abutilon theophrasti, 240 h; for pest or weed control at 125 g/ha: 125 g ai/ha; for pest or weed control at 500 g/ha: 500 g ai/ha
# In short: as §1
# [5] = tested on: blackgrass (Alopecurus myosuroides); assay: Test C pre-/postemergence: blackgrass
# In short: (§2)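 Preemergence on seeds in loam/sand, postemergence on 2–18 cm (1–4-leaf) plants in peat-based medium; compounds in non-phytotoxic solvent with surfactant. After 13–15 days in greenhouse, visual rating versus controls, 0 (no effect) to 100 (complete control).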
# [6] = tested on: winter wheat (Triticum aestivum); assay: Test C pre-/postemergence: winter wheat
# In short: as §2
# [7] = tested on: wild oat (Avena fatua); assay: Test C pre-/postemergence: wild oat
# In short: as §2
# [8] = tested on: corn (Zea mays); assay: Test C pre-/postemergence: corn
# In short: as §2
# [9] = tested on: lambsquarters (Chenopodium album); assay: Test C pre-/postemergence: lambsquarters
# In short: as §2
# [10] = tested on: morningglory (Ipomoea coccinea); assay: Test C pre-/postemergence: morningglory
# In short: as §2
# [11] = tested on: nutsedge, yellow (yellow nutsedge, Cyperus esculentus); assay: Test C pre-/postemergence: nutsedge, yellow
# In short: as §2
# [12] = tested on: chickweed (common chickweed, Stellaria media); assay: Test C postemergence: chickweed; conditions: 31 g ai/ha, scale 0 to 100 (0 no effect, 100 complete control)
# In short: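 Greenhouse pot test; foliar postemergence treatment at 1- to 4-leaf stage. Rated visually at 13 to 15 days on a 0–100 control scale relative to untreated plants.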
# [13] = Postemergence, 31 g ai/ha, scale 0 to 100 (0 no effect, 100 complete control)
# [14] = Postemergence, 62 g ai/ha, scale 0 to 100 (0 no effect, 100 complete control)
# [15] = Postemergence, 125 g ai/ha, scale 0 to 100, 0 no effect, 100 complete control
# [16] = Postemergence, 250 g ai/ha, scale 0 to 100
# [17] = Preemergence, 31 g ai/ha, scale of 0 to 100, 0 is no effect, 100 is complete control
# [18] = Preemergence, 62 g ai/ha, scale 0 to 100, 0 no effect, 100 complete control
# [19] = Preemergence, 125 g ai/ha, scale 0 to 100, 0 no effect, 100 complete control
# [20] = Preemergence, 250 g ai/ha, scale 0 to 100, 0 no effect, 100 complete control
# [21] = Preemergence, 62 g ai/ha, scale of 0 to 100, 0 is no effect, 100 is complete control
structure (smiles),measurement,setting,value
"Cc1nn(-c2ccc(C(F)(F)F)cc2)nc1Cc1ccnc(C(F)(F)F)c1 [Compound 47, 4-[[5-methyl-2-[4-(trifluoromethyl)phenyl]-2H-1,2,3-triazol-4-yl]methyl]-2-(trifluoromethyl)pyridine]",pest or weed control at 125 g/ha,"[1]; post-emergence, Postemergence, 0 to 100 scale, 0 is no effect, 100 is complete control, read-out: Barnyardgrass plant response rating",90%
same,pest or weed control at 500 g/ha,"[1]; post-emergence, Postemergence, visual rating on 0 to 100 scale (0 no effect, 100 complete control), approximately ten days, read-out: Barnyardgrass plant response rating",90%
same,pest or weed control at 125 g/ha,"[1]; pre-emergence, Preemergence, 0 to 100 scale (0 no effect, 100 complete control), read-out: Plant response rating, Barnyardgrass",90%
same,pest or weed control at 500 g/ha,"[1]; pre-emergence, Preemergence, 0 to 100 scale, 0 is no effect, 100 is complete control, read-out: Plant response rating, Barnyardgrass",100%
same,pest or weed control at 125 g/ha,"[2]; post-emergence, Postemergence, 0 to 100 scale, 0 is no effect, 100 is complete control, read-out: Foxtail, Giant plant response rating",80%
same,pest or weed control at 500 g/ha,"[2]; post-emergence, Postemergence, visual rating on 0 to 100 scale (0 no effect, 100 complete control), approximately ten days, read-out: Foxtail, Giant plant response rating",90%
same,pest or weed control at 125 g/ha,"[2]; pre-emergence, Preemergence, 0 to 100 scale (0 no effect, 100 complete control), read-out: Plant response rating, Foxtail, Giant",100%
same,pest or weed control at 500 g/ha,"[2]; pre-emergence, Preemergence, 0 to 100 scale, 0 is no effect, 100 is complete control, read-out: Plant response rating, Foxtail, Giant",100%
same,pest or weed control at 125 g/ha,"[3]; post-emergence, Postemergence, 0 to 100 scale, 0 is no effect, 100 is complete control, read-out: Pigweed plant response rating",100%
same,pest or weed control at 500 g/ha,"[3]; post-emergence, Postemergence, visual rating on 0 to 100 scale (0 no effect, 100 complete control), approximately ten days, read-out: Pigweed plant response rating",100%
same,pest or weed control at 125 g/ha,"[3]; pre-emergence, Preemergence, 0 to 100 scale (0 no effect, 100 complete control), read-out: Plant response rating, Pigweed",100%
same,pest or weed control at 500 g/ha,"[3]; pre-emergence, Preemergence, 0 to 100 scale, 0 is no effect, 100 is complete control, read-out: Plant response rating, Pigweed",100%
same,pest or weed control at 125 g/ha,"[4]; post-emergence, Postemergence, 0 to 100 scale, 0 is no effect, 100 is complete control, read-out: Velvetleaf plant response rating",100%
same,pest or weed control at 500 g/ha,"[4]; post-emergence, Postemergence, visual rating on 0 to 100 scale (0 no effect, 100 complete control), approximately ten days, read-out: Velvetleaf plant response rating",100%
same,pest or weed control at 125 g/ha,"[4]; pre-emergence, Preemergence, 0 to 100 scale (0 no effect, 100 complete control), read-out: Plant response rating, Velvetleaf",80%
same,pest or weed control at 500 g/ha,"[4]; pre-emergence, Preemergence, 0 to 100 scale, 0 is no effect, 100 is complete control, read-out: Plant response rating, Velvetleaf",100%
same,"Plant response rating, Blackgrass",[5]; [13],40
same,"Plant response rating, Blackgrass",[5]; [14],45
same,"Plant response rating, Blackgrass",[5]; [15],60
same,"Plant response rating, Blackgrass",[5]; [16],90
same,"Plant response rating, Blackgrass",[5]; [17],90
same,"Plant response rating, Blackgrass",[5]; [18],98
same,"Plant response rating, Blackgrass",[5]; [19],100
same,"Plant response rating, Blackgrass",[5]; [20],100
same,"Plant response rating, Wheat",[6]; [13],15
same,"Plant response rating, Wheat",[6]; [14],35
same,"Plant response rating, Wheat",[6]; [15],45
same,"Plant response rating, Wheat",[6]; [16],50
same,"Plant response rating, Wheat",[6]; [17],0
same,"Plant response rating, Wheat",[6]; [21],5
same,"Plant response rating, Wheat",[6]; [19],35
same,"Plant response rating, Wheat",[6]; [20],40
same,"Plant response rating, Oat, Wild",[7]; [13],35
same,"Plant response rating, Oat, Wild",[7]; [15],85
same,"Plant response rating, Oat, Wild",[7]; [16],90
same,"Plant response rating, Oat, Wild",[7]; [17],80
same,"Plant response rating, Oat, Wild",[7]; [21],90
same,"Plant response rating, Oat, Wild",[7]; [19],90
same,"Plant response rating, Oat, Wild",[7]; [20],100
same,"Plant response rating, Corn",[8]; [13],5
same,"Plant response rating, Corn",[8]; [14],15
same,"Plant response rating, Corn",[8]; [15],15
same,"Plant response rating, Corn",[8]; [16],25
same,"Plant response rating, Corn",[8]; [17],0
same,"Plant response rating, Corn",[8]; [18],5
same,"Plant response rating, Corn",[8]; [19],10
same,"Plant response rating, Corn",[8]; [20],40
same,"Plant response rating, Lambsquarters",[9]; [13],100
same,"Plant response rating, Lambsquarters",[9]; [17],100
same,"Plant response rating, Lambsquarters",[9]; [21],100
same,"Plant response rating, Lambsquarters",[9]; [19],100
same,"Plant response rating, Lambsquarters",[9]; [20],100
same,"Plant response rating, Morningglory",[10]; [13],75
same,"Plant response rating, Morningglory",[10]; [14],95
same,"Plant response rating, Morningglory",[10]; [15],100
same,"Plant response rating, Morningglory",[10]; [16],100
same,"Plant response rating, Morningglory",[10]; [17],5
same,"Plant response rating, Morningglory",[10]; [21],20
same,"Plant response rating, Morningglory",[10]; [19],50
same,"Plant response rating, Morningglory",[10]; [20],65
same,"Plant response rating, Nutsedge, Yellow",[11]; [13],0
same,"Plant response rating, Nutsedge, Yellow",[11]; [14],0
same,"Plant response rating, Nutsedge, Yellow",[11]; [15],0
same,"Plant response rating, Nutsedge, Yellow",[11]; [16],0
same,"Plant response rating, Nutsedge, Yellow",[11]; [17],0
same,"Plant response rating, Nutsedge, Yellow",[11]; [21],0
same,"Plant response rating, Nutsedge, Yellow",[11]; [19],0
same,"Plant response rating, Nutsedge, Yellow",[11]; [20],0
same,"Plant response rating, Chickweed",[12],80
